Measured values taken from patent publication US20050176727A1, “Oximes and hydrazones that are useful in treating sexual dysfunction” (priority 2004, published 2005).
Where a name gives a salt, the structure may show the parent alone.

Tests used:
[1] = tested on: penile erection in Wistar rats; test: Rat penile erection model; assay type: in vivo; conditions: reference compound
Protocol: Wistar rats were used as a primary animal model to study penile erection in vivo. All experiments were carried out between 9:00 AM and 3:00 PM in a diffusely illuminated testing room with a red light. Animals (n=8-30) were weighed and allowed to adapt to the testing room for 60 minutes before the beginning of experiments. Rats were placed individually in a transparent cage (20×30×30 cm) after drug injection.

| SMILES | melting point [°C] | most efficacious dose [1] [µmol/kg] |
| --- | --- | --- |
| O/N=C(\CCN1CCN(c2ccccn2)CC1)c1ccc(Cl)cc1 [Example 22, (1E)-1-(4-chlorophenyl)-3-(4-pyridin-2-ylpiperazin-1-yl)propan-1-one oxime] | 188 to 190 |  |
| N#CCON=C(CCN1CCN(c2ccccn2)CC1)c1ccccc1 (as salt: maleate) [Example 29, ({[1-phenyl-3-(4-pyridin-2-ylpiperazin-1-yl)propylidene]amino}oxy)acetonitrile] | 127 to 128 |  |
| CN1CCc2cccc3c2[C@H]1Cc1ccc(O)c(O)c1-3 [apomorphine, (6aR) 5,6,6a,7-tetrahydro-6-methyl-4H-dibenzo[de,g]quinoline-10,11-diol] |  | 0.1 |
| CON=C(c1ccc(Cl)cc1)C(C)CN1CCN(c2ccccn2)CC1 (stereo not shown) (as salt: maleate) [Example 39, 1-(4-chlorophenyl)-2-methyl-3-(4-pyridin-2-ylpiperazin-1-yl)propan-1-one O-methyloxime] | 152 to 153 |  |
| CCCCON=C(CCN1CCN(c2ccccn2)CC1)c1ccccc1 (as salt: maleate) [Example 30, 1-phenyl-3-(4-pyridin-2-ylpiperazin-1-yl)propan-1-one O-butyloxime] | 154 to 155 |  |
| CC(C)O/N=C(\CCN1CCN(c2ccccn2)CC1)c1ccccc1 (as salt: maleate) [Example 31, (1E)-1-phenyl-3-(4-pyridin-2-ylpiperazin-1-yl)propan-1-one O-isopropyloxime] | 156 to 157 |  |
| ON=C(CCN1CCN(c2ccccn2)CC1)c1ccc(F)cc1 [Example 21, 1-(4-fluorophenyl)-3-(4-pyridin-2-ylpiperazin-1-yl)propan-1-one oxime] | 159 to 160 |  |
